Target: T1, cPLA2 (Homo sapiens, UniProt P47712)
T1 sequence (P47712 1-749): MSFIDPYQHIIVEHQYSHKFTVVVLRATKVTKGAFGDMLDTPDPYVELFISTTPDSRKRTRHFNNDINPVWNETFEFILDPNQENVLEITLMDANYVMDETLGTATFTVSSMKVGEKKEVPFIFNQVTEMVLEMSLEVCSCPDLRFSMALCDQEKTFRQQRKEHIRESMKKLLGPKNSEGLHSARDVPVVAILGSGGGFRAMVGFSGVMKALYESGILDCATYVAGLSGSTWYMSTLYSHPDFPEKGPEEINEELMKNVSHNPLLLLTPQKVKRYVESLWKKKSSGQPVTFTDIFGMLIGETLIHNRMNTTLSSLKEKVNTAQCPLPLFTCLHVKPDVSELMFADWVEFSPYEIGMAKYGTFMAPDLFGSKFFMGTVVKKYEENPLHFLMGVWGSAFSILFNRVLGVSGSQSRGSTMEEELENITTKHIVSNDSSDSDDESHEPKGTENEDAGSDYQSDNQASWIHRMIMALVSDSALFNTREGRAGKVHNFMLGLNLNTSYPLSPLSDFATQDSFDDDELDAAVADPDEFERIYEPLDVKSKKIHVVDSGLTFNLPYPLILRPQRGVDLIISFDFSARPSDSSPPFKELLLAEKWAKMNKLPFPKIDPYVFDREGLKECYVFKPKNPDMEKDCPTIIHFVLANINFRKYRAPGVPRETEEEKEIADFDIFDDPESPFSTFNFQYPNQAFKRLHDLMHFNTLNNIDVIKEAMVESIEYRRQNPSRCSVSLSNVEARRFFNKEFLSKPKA
Test: Coumarine assay (cPLA2 inhibition)
Format: biochemical
Details: 7-hydroxycoumarinyl 6-heptenoate as monomeric substrate, fluorescence 360/460 nm; read-out: Coumarin IC50
Experimental: 7-hydroxycoumarinyl 6-heptenoate was used as a monomeric substrate for cPLA2 as reported previously (Huang, Z. et al., 1994, Nalytical Biochemistry 222, 110-115). Inhibitors were mixed with 200 μL assay buffer (80 mM Heped, pH 7.5, l mM EDTA) containing 60 μM 7-hydroxycoumarinyl 6-heptenoate. The reaction was initiated by adding 4 μg cPLA2 in 50 μL assay buffer. Hydrolysis of the 7-hydroxycoumarinyl 6-heptenoate ester was monitored in a fluorometer by exciting at 360 nm and monitoring emission at 460 nm. Enzyme activity is proportional to the increase in emission at 460 nm per minute. In the presence of a cPLA2 inhibitor, the rate of increase is less.

Work on `O=C(O)c1ccc(S(=O)(=O)CCn2cc(C(c3ccccc3)c3ccccc3)c3ccc(Cl)cc32)cc1` [Example 92, 4-{[2-(3-benzhydryl-6-chloro-1H-indol-1-yl)ethyl]sulfonyl}benzoic acid] yielded an IC50 of 9000 nM.

For `Cc1c(C(c2ccccc2)c2ccccc2)c2cc(Cl)ccc2n1CCOc1ccc(CCC(=O)O)cc1` [Example 90, 3-{4-[2-(3-benzhydryl-5-chloro-2-methyl-1H-indol-1-yl)ethoxy]phenyl}propanoic acid], the IC50 was 1200 nM.

`Cc1c(C(c2ccccc2)c2ccccc2)c2ccccc2n1CCOc1ccc(C(=O)O)cc1` [Example 93, 4-[2-(3-benzhydryl-2-methyl-1H-indol-1-yl)ethoxy]benzoic acid] gave an IC50 of 2500 nM.

For `O=C(O)CCc1ccc(S(=O)(=O)CCn2cc(C(c3ccccc3)c3ccccc3)c3ccc(Cl)cc32)cc1` [Example 91, 3(4-{[2-(3-benzhydryl-6-chloro-1H-indol-1-yl)ethyl]sulfonyl}phenyl)propanoic acid], the IC50 was 4000 nM.

`Cc1c(C(c2ccccc2)c2ccccc2)c2cc(Cl)ccc2n1CCOc1ccc(C(=O)O)cc1` [Example 89, 4-[2-(3benzhydryl-5-chloro-2-methyl-1H-indol-1-yl)ethoxy]benzoic acid] was tested, and the IC50 was 2500 nM.

Work on `Cc1c(C(c2ccccc2)c2ccccc2)c2cc(Cl)ccc2n1C/C=C/COc1ccc(C(=O)O)cc1` [Example 88, 4-{[(E)-4-(3-benzhydryl-5-chloro-2-methyl-1H-indol-1-yl)-2-butenyl]oxy}benzoic acid] yielded an IC50 of 1100 nM.
